Results reported in patent US20060116368A1, “4-Piperidinecarboxamide modulators of vanilloid VR1 receptor” (priority 2004, published 2006).

Target: T1, Human Vanilloid Receptor 1 (Homo sapiens, UniProt Q8NER1)
T1 construct: expressed in transfected cells; host or cells: HEK 293
Test: Human VR1 functional assay using FLIPR, Protocol 1
Type: cell-based
Details: for inhibition at 9 µM: HEK293, 9 uM, inhibition of capsaicin (EC80)-induced calcium response, HEK 293 cells transfected with hVR1, read-out: h % I (9 uM); for IC50: decreased capsaicin (EC80)-induced calcium response, HEK 293 hVR1, read-out: h IC50
Protocol: The functional activity of the test compounds was determined by measuring changes in intracellular calcium concentration using FLIPR™ Calcium-3 Assay Kit and FLIPR™ technology.
HEK 293 cells transfected with Human Vanilloid Receptor 1 were maintained at 37° C. and 5% CO2 in: Dulbecco's Modification of Eagle's Medium (high glucose, L-glutamine, pyridoxine HCl, No sodium pyruvate), 10% FBS, 1× Penicillin-Streptomycin-Amphotericin B, 200 ug/mL zeocin. Approximately 24 hours prior to assay, 30,000 cells/well were plated onto a 384-well black clear bottom poly-D-lysine-coated assay plate with a well volume of 25 µL using Titertek Multidrop.
On the day of the assay, the medium was dumped and 50 μL 1× dye were loaded using Multidrop. Plates were incubated with dye at 37° C. for 30 minutes followed by 30 minutes incubation at room temperature. Then the plates were assayed by FLIPR™ with 2 additions: 12.5 μL test compound with 5 minutes data acquisition followed by 12.5 μL capsaicin at the EC80 concentration.
The EC50 values of test compounds were calculated based on a test compound-induced calcium response at the 5-minute time point. The IC50 values of compounds were calculated based on a decreased capsaicin-induced calcium response in the presence of test compound.

T1 sequence (Q8NER1 whole entry): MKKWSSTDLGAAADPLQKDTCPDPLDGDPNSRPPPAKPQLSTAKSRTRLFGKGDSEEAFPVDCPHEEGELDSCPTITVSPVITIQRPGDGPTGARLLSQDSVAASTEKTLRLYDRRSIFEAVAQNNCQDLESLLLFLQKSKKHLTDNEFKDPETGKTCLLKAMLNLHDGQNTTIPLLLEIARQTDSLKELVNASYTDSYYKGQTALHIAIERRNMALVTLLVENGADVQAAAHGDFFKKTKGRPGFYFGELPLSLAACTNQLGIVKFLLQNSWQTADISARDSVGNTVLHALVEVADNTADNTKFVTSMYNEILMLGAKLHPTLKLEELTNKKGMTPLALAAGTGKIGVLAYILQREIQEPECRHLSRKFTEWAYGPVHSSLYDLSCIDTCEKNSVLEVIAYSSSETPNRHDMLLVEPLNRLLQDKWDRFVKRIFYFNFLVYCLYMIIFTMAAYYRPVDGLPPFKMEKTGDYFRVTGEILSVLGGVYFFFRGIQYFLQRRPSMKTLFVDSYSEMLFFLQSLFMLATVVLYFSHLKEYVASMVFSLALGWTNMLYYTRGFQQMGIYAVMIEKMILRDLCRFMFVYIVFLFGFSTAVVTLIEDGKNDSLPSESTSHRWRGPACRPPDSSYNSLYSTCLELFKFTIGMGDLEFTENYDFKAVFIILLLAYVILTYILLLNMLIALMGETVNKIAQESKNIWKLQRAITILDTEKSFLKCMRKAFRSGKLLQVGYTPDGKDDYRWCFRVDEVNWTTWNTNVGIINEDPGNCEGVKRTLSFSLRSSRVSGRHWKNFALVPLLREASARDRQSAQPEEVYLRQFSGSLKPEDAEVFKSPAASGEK

## Cc1cc(C)c2c(NC(=O)C3CCN(c4cccc(C(F)(F)F)c4)CC3)csc2n1 [Example 41, 1-(3-Trifluoromethyl-phenyl)-piperidine-4-carboxylic acid (4,6-dimethyl-thieno[2,3-b]pyridin-3-yl)-amide]
  inhibition at 9 µM: 12%

## COc1ccc(-c2cnc(NC(=O)C3CCN(c4cccc(C(F)(F)F)c4)CC3)nc2C)cc1OC [Example 42, 1-(3-Trifluoromethyl-phenyl)-piperidine-4-carboxylic acid [5-(3,4-dimethoxy-phenyl)-4-methyl-pyrimidin-2-yl]-amide]
  inhibition at 9 µM: 11%

## Cc1cc(Oc2ccccc2)nc(NC(=O)C2CCN(c3cccc(C(F)(F)F)c3)CC2)n1 [Example 43, 1-(3-Trifluoromethyl-phenyl)-piperidine-4-carboxylic acid (4-methyl-6-phenoxy-pyrimidin-2-yl)-amide]
  inhibition at 9 µM: 10%

## O=C1COc2cc(NC(=O)C3CCN(c4cccc(C(F)(F)F)c4)CC3)ccc2N1 [Example 44, 1-(3-Trifluoromethyl-phenyl)-piperidine-4-carboxylic acid (3-oxo-3,4-dihydro-2H-benzo[1,4]oxazin-7-yl)-amide]
  inhibition at 9 µM: 33%

## CNc1ccc2ncncc2c1NC(=O)C1CCN(c2cccc(C(F)(F)F)c2)CC1 [Example 45, 1-(3-Trifluoromethyl-phenyl)-piperidine-4-carboxylic acid (6-methylamino-quinazolin-5-yl)-amide]
  inhibition at 9 µM: 5%

## CC(=O)N1CCc2c(NC(=O)C3CCN(c4cccc(C(F)(F)F)c4)CC3)cccc21 [Example 46, 1-(3-Trifluoromethyl-phenyl)-piperidine-4-carboxylic acid (1-acetyl-2,3-dihydro-1H-indol-4-yl)-amide]
  inhibition at 9 µM: 61.4%
  IC50: 1200 nM

## O=C(Nc1cc(-c2ccco2)n[nH]1)C1CCN(c2cccc(C(F)(F)F)c2)CC1 [Example 47, 1-(3-Trifluoromethyl-phenyl)-piperidine-4-carboxylic acid (5-furan-2-yl-2H-pyrazol-3-yl)-amide]
  inhibition at 9 µM: 12%

## O=C(Nc1cc(-c2cccs2)n[nH]1)C1CCN(c2cccc(C(F)(F)F)c2)CC1 [Example 48, 1-(3-Trifluoromethyl-phenyl)-piperidine-4-carboxylic acid (5-thiophen-2-yl-2H-pyrazol-3-yl)-amide]
  inhibition at 9 µM: 9.5%

## Cc1cc(Cl)nnc1NC(=O)C1CCN(c2cccc(C(F)(F)F)c2)CC1 [Example 51, 1-(3-Trifluoromethyl-phenyl)-piperidine-4-carboxylic acid (6-chloro-4-methyl-pyridazin-3-yl)-amide]
  inhibition at 9 µM: 8%

## Cn1cnc2c(N3CCC(C(=O)Nc4cccc5[nH]ccc45)CC3)ncnc21 [Example 54, 1-(9-Methyl-9H-purin-6-yl)-piperidine-4-carboxylic acid (1H-indol-4-yl)-amide]
  inhibition at 9 µM: 16%

## O=C1COc2ccc(NC(=O)C3CCN(c4ccccc4)CC3)cc2N1 [Example 139, 1-Phenyl-piperidine-4-carboxylic acid (3-oxo-3,4-dihydro-2H-benzo[1,4]oxazin-6-yl)-amide]
  inhibition at 9 µM: 85%
  IC50: 1810 nM

## O=C1COc2ccc(NC(=O)C3CCN(c4cccc(Br)c4)CC3)cc2N1 [Example 149, 1-(3-Bromo-phenyl)-piperidine-4-carboxylic acid (3-oxo-3,4-dihydro-2H-benzo[1,4]oxazin-6-yl)-amide]
  inhibition at 9 µM: 91.3%
  IC50: 330 nM

## COc1cccc(N2CCC(C(=O)Nc3ccc4c(c3)NC(=O)CO4)CC2)c1 [Example 150, 1-(3-Methoxy-phenyl)-piperidine-4-carboxylic acid (3-oxo-3,4-dihydro-2H-benzo[1,4]oxazin-6-yl)-amide]
  inhibition at 9 µM: 79.3%
  IC50: 1420 nM

## O=C1COc2ccc(NC(=O)C3CCN(c4cc(F)c(F)c(F)c4)CC3)cc2N1 [Example 156, 1-(3,4,5-Trifluoro-phenyl)-piperidine-4-carboxylic acid (3-oxo-3,4-dihydro-2H-benzo[1,4]oxazin-6-yl)-amide]
  inhibition at 9 µM: 93.3%
  IC50: 60 nM
